Where a name gives a salt, the structure may show the parent alone.

Sequence of S1P1 (P21453 whole entry, species assumed): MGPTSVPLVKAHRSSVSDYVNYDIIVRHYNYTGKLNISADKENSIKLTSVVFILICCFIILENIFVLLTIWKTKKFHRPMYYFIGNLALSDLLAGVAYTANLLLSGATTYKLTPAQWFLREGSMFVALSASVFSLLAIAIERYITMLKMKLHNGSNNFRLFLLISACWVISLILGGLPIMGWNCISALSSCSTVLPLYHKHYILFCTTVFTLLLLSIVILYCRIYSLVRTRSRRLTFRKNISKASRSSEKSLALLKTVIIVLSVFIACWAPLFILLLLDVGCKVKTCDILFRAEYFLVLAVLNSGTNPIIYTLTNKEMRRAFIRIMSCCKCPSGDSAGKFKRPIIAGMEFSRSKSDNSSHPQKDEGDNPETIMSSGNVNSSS

The experiment has as its target S1P1 (Homo sapiens (Human), UniProt P21453). As to the kind of experiment: 35S-GTPγS binding, membranes from CHO cells expressing S1P1. Format: biochemical. Particulars: CHO cell membranes. Here is the method: Cells were suspended in 50 mM TRIS, pH 7.4, 2 mM EDTA, 250 mM Sucrose (buffer A) and 1× Complete protease inhibitor cocktail (Roche), and disrupted at 4° C. by N2 decompression using a cell disruption bomb (Parr Instrument). Following centrifugation at 1000 RPM for 10 min at 4° C., the supernatant was suspended in buffer A and centrifuged again at 19000 RPM for 60 min at 4° C. The pellet was then suspended in 10 mM HEPES, pH 7.4, 1 mM EDTA, 250 mM Sucrose (Buffer B), and 1× Complete EDTA-free protease inhibitor cocktail and homogenized using a potter. Membranes were flash frozen in liquid N2 and stored at −80° C. [33P]sphingosine 1-phosphate (3000 Ci/mmol; American Radiolabeled Chemicals, Inc.) was added to test compounds in DMSO. […] Specific binding was calculated by subtracting remaining radioactivity in the presence of 1000-fold excess of unlabeled SIP. Binding data were analyzed using the GraphPad Prism program.
After 60 min incubation at 30° C. on a shaker, plates were centrifuged for 10 min at 2000 RPM. […] Triplicate samples were averaged and expressed as % response relative to S1P activation in absence of compound (n=2).
(In general: GTPγS resists hydrolysis and so accumulates on activated G proteins.)
A word on the EC50: it is the concentration at which the effect is half-maximal. High values mean weaker potency, low ones greater potency. As to `COCc1c(-c2nc(-c3ccc(CN4CCC(O)C4)cc3)no2)cnn1C1CCCCC1` (stereo not drawn) [Example 74, 1-(4-{5-[1-cyclohexyl-5-(methoxymethyl)-1H-pyrazol-4-yl]-1,2,4-oxadiazol-3-yl}benzyl)pyrrolidin-3-ol], the concentration for a half-maximal effect (EC50) worked out at 86 nM. With `CC(C)Cn1ncc(-c2nc(-c3cc(F)ccc3F)no2)c1C1CCOCC1` [Example 32, 3-(2,5-difluorophenyl)-5-[1-isobutyl-5-(tetrahydro-2H-pyran-4-yl)-1H-pyrazol-4-yl]-1,2,4-oxadiazole] the figure was 180 nM; with `COCc1c(-c2nc(-c3ccc(CNCCC(=O)O)cc3)no2)cnn1C1CCCCC1` [Example 67, N-(4-{5-[1-cyclohexyl-5-(methoxymethyl)-1H-pyrazol-4-yl]-1,2,4-oxadiazol-3-yl}benzyl)-beta-alanine], 1.4 nM.

`CC(C)n1ncc(-c2nc(-c3cc(F)ccc3F)no2)c1-c1ccccc1` [Example 10, 3-(2,5-difluorophenyl)-5-(1-isopropyl-5-phenyl-1H-pyrazol-4-yl)-1,2,4-oxadiazole] gave an EC50 of 172 nM. `c1cc(-c2c(-c3nc(-c4ccc(CN5CCC5)cc4)no3)cnn2C2CCCCC2)ccn1` [Example 66, 4-(4-{3-[4-(azetidin-1-ylmethyl)phenyl]-1,2,4-oxadiazol-5-yl}-1-cyclohexyl-1H-pyrazol-5-yl)pyridine] gave a concentration for a half-maximal effect (EC50) of 13 nM. The molecule `COCc1c(-c2nc(-c3ccc(CCN4CCC(C(=O)OC)CC4)cc3)no2)cnn1C1CCCCC1` [Example 129, Methyl 1-(4-(5-(1-cyclohexyl-5-(methoxymethyl)-1H-pyrazol-4-yl)-1,2,4-oxadiazol-3-yl)phenethyl)piperidine-4-carboxylate] displayed a concentration giving a half-maximal response (EC50) of 438 nM. With `CC(C)Cn1ncc(-c2nc(-c3ccc(CN4CC(O)C4)cc3)no2)c1-c1ccncc1` [Example 82, 1-(4-(5-(1-isobutyl-5-(pyridin-4-yl)-1H-pyrazol-4-yl)-1,2,4-oxadiazol-3-yl)benzyl)azetidin-3-ol, formate] the figure was 156 nM.

Regarding `COCc1c(-c2nc(-c3ccc(CCNC(C)C)cc3)no2)cnn1C1CCCCC1` [Example 128, N-(4-(5-(1-cyclohexyl-5-(methoxymethyl)-1H-pyrazol-4-yl)-1,2,4-oxadiazol-3-yl)phenethyl)propan-2-amine formate], the EC50 was found to be 158 nM. `CC(C)Cn1ncc(-c2nc(-c3cccc(C(F)(F)F)c3)no2)c1C1CCOCC1` [Example 50, 5-[1-isobutyl-5-(tetrahydro-2H-pyran-4-yl)-1H-pyrazol-4-yl]-3-[3-(trifluoromethyl)phenyl]-1,2,4-oxadiazole] registered an EC50 of 211 nM. For the molecule `COCc1c(-c2nc(-c3ccc(Cn4ccnc4)cc3)no2)cnn1C1CCCCC1` [Example 119, 3-(4-((1H-imidazol-1-yl)methyl)phenyl)-5-(1-cyclohexyl-5-(methoxymethyl)-1H-pyrazol-4-yl)-1,2,4-oxadiazole], the EC50 stood at 66 nM. `OC1CCN(Cc2ccc(-c3noc(-c4cnn(C5CCCCC5)c4-c4ccncc4)n3)cc2)C1` (stereo not drawn) [Example 45, 1-{4-[5-(1-cyclohexyl-5-pyridin-4-yl-1H-pyrazol-4-yl)-1,2,4-oxadiazol-3-yl]benzyl}pyrrolidin-3-ol]: the EC50 was 10 nM. `CCc1c(-c2nc(-c3cc(F)ccc3F)no2)cnn1CC(C)C` [Example 18, 3-(2,5-difluorophenyl)-5-(5-ethyl-1-isobutyl-1H-pyrazol-4-yl)-1,2,4-oxadiazole] showed an EC50 of 776 nM. `CC(C)Cn1ncc(-c2nc(-c3ccc(CN(C)C)cc3)no2)c1-c1ccncc1` [Example 81, 1-(4-(5-(1-isobutyl-5-(pyridin-4-yl)-1H-pyrazol-4-yl)-1,2,4-oxadiazol-3-yl)phenyl)-N,N-dimethylmethanamine, formate]: a half-maximal response (EC50) required 195 nM. With `CC(C)(C)Cn1ncc(-c2nc(-c3cc(F)ccc3F)no2)c1-c1ccncc1` [Example 93, 3-(2,5-difluorophenyl)-5-(1-neopentyl-5-(pyridin-4-yl)-1H-pyrazol-4-yl)-1,2,4-oxadiazole] the figure was 301 nM. Regarding `CNCc1ccc(-c2noc(-c3cnn(CC(C)C)c3-c3ccncc3)n2)cc1` [Example 85, 1-(4-(5-(1-isobutyl-5-(pyridin-4-yl)-1H-pyrazol-4-yl)-1,2,4-oxadiazol-3-yl)phenyl)-N-methylmethanamine], the midpoint of the response, the EC50, lay at 179 nM.

Turning to `COCc1c(-c2nc(-c3ccc4c(c3)CN(CCC(=O)O)CC4)no2)cnn1C1CCCCC1` [Example 118, 3-(7-(5-(1-cyclohexyl-5-(methoxymethyl)-1H-pyrazol-4-yl)-1,2,4-oxadiazol-3-yl)-3,4-dihydroisoquinolin-2(1H)-yl)propanoic acid], a half-maximal response (EC50) required 398 nM.

Take `OCc1ccc(-c2noc(-c3cnn(CC4CC4)c3-c3ccncc3)n2)cc1` [Example 94, (4-(5-(1-(cyclopropylmethyl)-5-(pyridin-4-yl)-1H-pyrazol-4-yl)-1,2,4-oxadiazol-3-yl)phenyl)methanol]: the response was half-maximal at 387 nM (EC50). As for `COCc1c(-c2nc(-c3ccc(CN(C)CC(=O)O)cc3)no2)cnn1C1CCCCC1` [Example 72, N-(4-{5-[1-cyclohexyl-5-(methoxymethyl)-1H-pyrazol-4-yl]-1,2,4-oxadiazol-3-yl}benzyl)-N-methylglycine], the figure is 119 nM; as for `CCCc1c(-c2nc(-c3cc(F)ccc3F)no2)cnn1-c1ccccc1` [Example 21, 3-(2,5-difluorophenyl)-5-(1-phenyl-5-propyl-1H-pyrazol-4-yl)-1,2,4-oxadiazole], 81 nM. For `COCCc1c(-c2nc(-c3cc(F)ccc3F)no2)cnn1C1CCCCC1` [Example 103, 5-(1-cyclohexyl-5-(2-methoxyethyl)-1H-pyrazol-4-yl)-3-(2,5-difluorophenyl)-1,2,4-oxadiazole], the half-maximal effective concentration (EC50) is 35 nM. `Fc1ccc(F)c(-c2noc(-c3cnn(-c4ccccc4F)c3-c3ccccc3)n2)c1` [Example 2, 3-(2,5-difluorophenyl)-5-[1-(2-fluorophenyl)-5-phenyl-1H-pyrazol-4-yl]-1,2,4-oxadiazole] registered an EC50 of 24 nM.

Molecule `CC(C)Cn1ncc(-c2nc(-c3ccc(CN4CCC(O)C4)cc3)no2)c1-c1ccncc1` (stereo not drawn) [Example 80, 1-(4-(5-(1-isobutyl-5-(pyridin-4-yl)-1H-pyrazol-4-yl)-1,2,4-oxadiazol-3-yl)benzyl)pyrrolidin-3-ol, formate] displayed an EC50 of 252 nM. With `Cc1c(-c2nc(-c3cc(F)ccc3F)no2)cnn1C1CCCCC1` [Example 86, 5-(1-cyclohexyl-5-methyl-1H-pyrazol-4-yl)-3-(2,5-difluorophenyl)-1,2,4-oxadiazole] the figure was 306 nM. As for `COCc1c(-c2nc(-c3ccc(CCN4CCC(C(=O)O)CC4)cc3)no2)cnn1C1CCCCC1` [Example 130, 1-(4-(5-(1-cyclohexyl-5-(methoxymethyl)-1H-pyrazol-4-yl)-1,2,4-oxadiazol-3-yl)phenethyl)piperidine-4-carboxylic acid], the figure is 36 nM; as for `COCc1c(-c2nc(-c3ccc(CO)cc3)no2)cnn1CC(C)C` [Example 69, (4-{5-[1-isobutyl-5-(methoxymethyl)-1H-pyrazol-4-yl]-1,2,4-oxadiazol-3-yl}phenyl)methanol], 437 nM. As for `c1ccc(-c2nc(-c3cnn(C4CCCCC4)c3-c3ccccc3)no2)cc1` [Example 51, 3-(1-cyclohexyl-5-phenyl-1H-pyrazol-4-yl)-5-phenyl-1,2,4-oxadiazole], the figure is 310 nM.

Molecule `COCc1c(-c2nc(-c3cccc(O)c3)no2)cnn1C1CCCCC1` [Example 126, 3-(5-(1-cyclohexyl-5-(methoxymethyl)-1H-pyrazol-4-yl)-1,2,4-oxadiazol-3-yl)phenol] displayed an EC50 of 168 nM. As for `CCOC(=O)Cn1ncc(-c2nc(-c3cc(F)ccc3F)no2)c1-c1ccncc1` [Example 20, ethyl {4-[3-(2,5-difluorophenyl)-1,2,4-oxadiazol-5-yl]-5-pyridin-4-yl-1H-pyrazol-1-yl}acetate], the figure is 172 nM; as for `COCCNCc1ccc(-c2noc(-c3cnn(C4CCCCC4)c3-c3ccncc3)n2)cc1` [Example 78, N-(4-(5-(1-cyclohexyl-5-(pyridin-4-yl)-1H-pyrazol-4-yl)-1,2,4-oxadiazol-3-yl)benzyl)-2-methoxyethanamine], 67 nM. `CNCc1ccc(-c2noc(-c3cnn(CC(C)(C)C)c3-c3ccncc3)n2)cc1` [Example 104, N-methyl-1-(4-(5-(1-neopentyl-5-(pyridin-4-yl)-1H-pyrazol-4-yl)-1,2,4-oxadiazol-3-yl)phenyl)methanamine] gave an EC50 of 314 nM.

Consider `COCc1c(-c2nc(-c3ccc(Cn4cncn4)cc3)no2)cnn1C1CCCCC1` [Example 107, 3-(4-((1H-1,2,4-triazol-1-yl)methyl)phenyl)-5-(1-cyclohexyl-5-(methoxymethyl)-1H-pyrazol-4-yl)-1,2,4-oxadiazole], for which the EC50 worked out at 45 nM. In turn, `FC(F)(F)c1cccc(-c2noc(-c3cnn(CC4CC4)c3-c3ccncc3)n2)c1` [Example 113, 5-(1-(cyclopropylmethyl)-5-(pyridin-4-yl)-1H-pyrazol-4-yl)-3-(3-(trifluoromethyl)phenyl)-1,2,4-oxadiazole] showed an EC50 of 24 nM. Consider `CC(C)Cn1cc(-c2nc(-c3cc(F)ccc3F)no2)c(-c2ccccc2)n1` [Example 7, 3-(2,5-difluorophenyl)-5-(1-isobutyl-3-phenyl-1H-pyrazol-4-yl)-1,2,4-oxadiazole], for which the EC50 was determined as 288 nM.

These data come from patent US8802663B2, “Pyrazole oxadiazole derivatives as S1P1 agonists” (Merck Serono SA, priority 2009, dated 2014).
